From patent publication US12415794B2 (Edgewise Therapeutics, Inc., priority 2018, dated 2025)

Assays:
[1] = target: skeletal myofibrils (myosin ATPase); experiment: Skeletal Myofibril ATPase Assay; assay type: biochemical
In short: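 Rates of NADH loss (A340, kinetic read over 45 min) report ADP generation by myofibrillar myosin, coupled through pyruvate kinase and lactate dehydrogenase; pCa buffer at pH 7.0. IC50 fitted by 4-parameter logistic after normalizing to 1% DMSO controls; cardiac myofibrils served for selectivity.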

[2] = target: T1, cardiac myofibrils (myosin ATPase); experiment: Cardiac Myofibril ATPase Assay (counter screen); assay type: biochemical; conditions: myofibrils 1.0 mg/mL, KCl omitted
T1 construct: frozen myofibril pellets obtained from cardiac tissue; from tissue
T1 sequence (P12883 whole entry): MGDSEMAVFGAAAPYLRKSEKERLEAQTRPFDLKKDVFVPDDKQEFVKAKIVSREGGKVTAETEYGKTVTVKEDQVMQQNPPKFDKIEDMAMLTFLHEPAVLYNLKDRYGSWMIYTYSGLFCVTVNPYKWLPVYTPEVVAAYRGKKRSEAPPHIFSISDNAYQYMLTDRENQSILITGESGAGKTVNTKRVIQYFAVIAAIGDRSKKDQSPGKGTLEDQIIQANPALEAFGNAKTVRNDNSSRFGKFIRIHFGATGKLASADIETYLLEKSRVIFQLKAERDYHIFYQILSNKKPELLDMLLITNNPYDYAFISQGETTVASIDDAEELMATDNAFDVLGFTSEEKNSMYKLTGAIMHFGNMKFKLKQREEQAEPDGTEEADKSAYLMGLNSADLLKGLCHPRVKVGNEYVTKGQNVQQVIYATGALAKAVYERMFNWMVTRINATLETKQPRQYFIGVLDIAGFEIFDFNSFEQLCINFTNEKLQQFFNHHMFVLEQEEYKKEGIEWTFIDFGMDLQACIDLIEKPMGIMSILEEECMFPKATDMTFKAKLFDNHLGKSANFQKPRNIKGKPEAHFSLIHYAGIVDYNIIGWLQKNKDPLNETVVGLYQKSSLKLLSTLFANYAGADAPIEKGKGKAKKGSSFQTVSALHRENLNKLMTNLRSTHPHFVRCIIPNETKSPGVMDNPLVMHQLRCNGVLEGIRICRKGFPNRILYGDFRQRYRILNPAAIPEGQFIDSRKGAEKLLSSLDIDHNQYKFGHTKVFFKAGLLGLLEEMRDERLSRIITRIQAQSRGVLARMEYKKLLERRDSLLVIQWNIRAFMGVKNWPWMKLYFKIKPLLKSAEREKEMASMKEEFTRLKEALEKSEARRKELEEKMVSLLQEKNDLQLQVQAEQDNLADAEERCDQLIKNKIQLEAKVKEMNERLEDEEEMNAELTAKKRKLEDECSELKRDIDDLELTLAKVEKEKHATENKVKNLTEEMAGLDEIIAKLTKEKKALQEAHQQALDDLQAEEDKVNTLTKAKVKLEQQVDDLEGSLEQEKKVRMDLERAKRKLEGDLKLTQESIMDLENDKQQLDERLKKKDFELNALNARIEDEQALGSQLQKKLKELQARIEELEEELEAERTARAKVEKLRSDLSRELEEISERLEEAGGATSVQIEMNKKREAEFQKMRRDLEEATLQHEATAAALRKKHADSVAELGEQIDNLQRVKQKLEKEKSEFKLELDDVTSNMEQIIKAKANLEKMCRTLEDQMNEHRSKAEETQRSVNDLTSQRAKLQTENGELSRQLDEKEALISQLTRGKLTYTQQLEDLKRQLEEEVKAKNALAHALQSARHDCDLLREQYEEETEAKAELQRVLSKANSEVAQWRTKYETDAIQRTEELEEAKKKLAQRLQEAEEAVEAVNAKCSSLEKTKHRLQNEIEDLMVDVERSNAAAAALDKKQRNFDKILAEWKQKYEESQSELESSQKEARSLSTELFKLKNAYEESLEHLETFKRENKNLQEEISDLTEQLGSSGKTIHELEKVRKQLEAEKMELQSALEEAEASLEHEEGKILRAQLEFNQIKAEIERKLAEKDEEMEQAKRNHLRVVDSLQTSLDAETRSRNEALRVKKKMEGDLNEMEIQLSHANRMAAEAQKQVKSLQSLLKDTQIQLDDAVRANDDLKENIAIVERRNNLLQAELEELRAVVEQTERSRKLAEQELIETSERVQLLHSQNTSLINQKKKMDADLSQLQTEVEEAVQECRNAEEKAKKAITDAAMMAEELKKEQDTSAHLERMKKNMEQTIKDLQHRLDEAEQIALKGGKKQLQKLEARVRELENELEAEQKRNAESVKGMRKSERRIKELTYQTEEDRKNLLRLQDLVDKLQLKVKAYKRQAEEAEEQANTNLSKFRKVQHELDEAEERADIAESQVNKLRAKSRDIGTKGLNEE
T1 sequence (P08590 whole entry partner): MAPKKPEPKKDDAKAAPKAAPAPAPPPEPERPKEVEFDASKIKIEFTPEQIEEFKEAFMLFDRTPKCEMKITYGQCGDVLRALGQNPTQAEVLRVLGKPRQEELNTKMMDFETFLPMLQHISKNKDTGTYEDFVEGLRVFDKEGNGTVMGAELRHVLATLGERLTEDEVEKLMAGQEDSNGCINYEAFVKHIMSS
T1 sequence (P10916 whole entry partner): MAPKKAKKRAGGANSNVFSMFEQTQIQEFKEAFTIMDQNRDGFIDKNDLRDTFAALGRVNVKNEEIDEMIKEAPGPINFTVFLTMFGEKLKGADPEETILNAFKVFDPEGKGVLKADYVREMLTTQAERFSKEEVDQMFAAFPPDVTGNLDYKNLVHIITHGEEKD
In short: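 Myosin ATPase rate followed via NADH disappearance at 340 nm, coupled through pyruvate kinase and lactate dehydrogenase, using cardiac myofibril pellets (final 1.0 mg/mL) without KCl. IC50 values reflect rate reduction compared with vehicle-treated wells.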

Structure (SMILES): COc1ccc(-c2ccc(=O)n(CC(=O)NC[C@@H]3CC4C=CC3C4)n2)cc1 (stereo partly drawn) [IIIb-39, N-(((2R)-bicyclo[2.2.1]hept-5-en-2-yl)methyl)-2-(3-(4-methoxyphenyl)-6-oxopyridazin-1(6H)-yl)acetamide]
- IC50 ([1]; Table 4C): > 100 µM
- IC50 ([2]; Table 5C): > 100 µM

Structure (SMILES): CCNC(=O)Cn1nc(-c2ccc(OC3CC(F)(F)C3)nc2)ccc1=O [Compound I-75, 2-(3-(6-(3,3-difluorocyclobutoxy)pyridin-3-yl)-6-oxopyridazin-1(6H)-yl)-N-ethylacetamide]
- IC50 ([1]; Table 4A): 10 to 100 µM
- IC50 ([2]; Table 5A): > 100 µM

Structure (SMILES): COc1ccc(-c2ccc(=O)n(CC(=O)Nc3cc(Cl)ccc3Cl)n2)c(F)c1 [IIIb-13, N-(2,5-dichlorophenyl)-2-(3-(2-fluoro-4-methoxyphenyl)-6-oxopyridazin-1(6H)-yl)acetamide]
- IC50 ([1]; Table 4C): < 10 µM
- IC50 ([2]; Table 5C): > 100 µM

Structure (SMILES): CCNC(=O)Cn1nc(-c2ccc(C3CC3)cc2)ccc1=O [IIIa-19]
- IC50 ([1]; Table 4C): < 10 µM
- IC50 ([2]; Table 5C): > 100 µM

Structure (SMILES): COc1ccc(-c2ccc(=O)n(CC(=O)NCc3cccc(F)c3)n2)cc1 [IIIb-32, N-(3-fluorobenzyl)-2-(3-(4-methoxyphenyl)-6-oxopyridazin-1(6H)-yl)acetamide]
- IC50 ([1]; Table 4C): 10 to 100 µM
- IC50 ([2]; Table 5C): > 100 µM

Structure (SMILES): COc1ccc(-c2ccc(=O)n(CC(=O)Nc3ccc4c(c3)OCCO4)n2)c(F)c1 [IIIb-15, N-(2,3-dihydrobenzo[b][1,4]dioxin-6-yl)-2-(3-(2-fluoro-4-methoxyphenyl)-6-oxopyridazin-1(6H)-yl)acetamide]
- IC50 ([1]; Table 4C): < 10 µM
- IC50 ([2]; Table 5C): > 100 µM

Structure (SMILES): COc1ccc(-c2ccc(=O)n(CC(=O)Nc3cc(Cl)ccc3Cl)n2)cc1 [IIIb-10, N-(2,5-dichlorophenyl)-2-(3-(4-methoxyphenyl)-6-oxopyridazin-1(6H)-yl)acetamide]
- IC50 ([1]; Table 4C): < 10 µM
- IC50 ([2]; Table 5C): > 100 µM

Structure (SMILES): O=C(Cn1nc(-c2cnc(NC34CC(C3)C4)nc2)ccc1=O)NC1CCC1 [Compound I-50, 2-(3-(2-(bicyclo[1.1.1]pentan-1-ylamino)pyrimidin-5-yl)-6-oxopyridazin-1(6H)-yl)-N-cyclobutyl-acetamide]
- IC50 ([1]; Table 4A): < 10 µM
- IC50 ([2]; Table 5A): > 100 µM

Structure (SMILES): CCNC(=O)Cn1nc(-c2ccc(NC34CC(C3)C4)nc2)ccc1=O [Compound I-36, 2-(3-(6-(bicyclo[1.1.1]pentan-1-ylamino)pyridin-3-yl)-6-oxopyridazin-1(6H)-yl)-N-ethylacetamide]
- IC50 ([1]; Table 4A): < 10 µM
- IC50 ([2]; Table 5A): > 100 µM

Structure (SMILES): O=C(Cn1nc(-c2ccccc2)ccc1=O)Nc1ccccc1Cl [IIIc-56, N-(2-chlorophenyl)-2-(6-oxo-3-phenylpyridazin-1(6H)-yl)acetamide]
- IC50 ([1]; Table 4C): 10 to 100 µM
- IC50 ([2]; Table 5C): > 100 µM

Structure (SMILES): COc1ccc(-c2ccc(=O)n(CC(=O)NCc3ccc(OC)c(OC)c3)n2)cc1 [IIIb-49, N-(3,4-dimethoxybenzyl)-2-(3-(4-methoxyphenyl)-6-oxopyridazin-1(6H)-yl)acetamide]
- IC50 ([1]; Table 4C): > 100 µM
- IC50 ([2]; Table 5C): > 100 µM

Structure (SMILES): O=C(Cn1nc(-c2ccccc2)ccc1=O)Nc1ccc2[nH]ccc2c1 [IIIc-49, N-(1H-indol-5-yl)-2-(6-oxo-3-phenylpyridazin-1(6H)-yl)acetamide]
- IC50 ([1]; Table 4C): < 10 µM
- IC50 ([2]; Table 5C): > 100 µM

Structure (SMILES): CCNC(=O)Cn1nc(-c2ccc(OCC(F)(F)F)cc2)ccc1=O [II-6, N-ethyl-2-(6-oxo-3-(4-(2,2,2-trifluoroethoxy)phenyl)pyridazin-1(6H)-yl)acetamide]
- IC50 ([1]; Table 4B): < 10 µM
- IC50 ([2]; Table 5B): > 100 µM

Structure (SMILES): O=C(Cn1nc(-c2ccc(NC3CCC3)nc2)ccc1=O)NC1CCC1 [Compound I-52, N-cyclobutyl-2-(3-(6-(cyclobutylamino)pyridin-3-yl)-6-oxopyridazin-1(6H)-yl)acetamide]
- IC50 ([1]; Table 4A): < 10 µM
- IC50 ([2]; Table 5A): > 100 µM

Structure (SMILES): CCNC(=O)Cn1nc(-c2ccc(N3CCC34COC4)nc2)ccc1=O [Compound I-19, 2-(3-(6-(6-oxa-1-azaspiro[3.3]heptan-1-yl)pyridin-3-yl)-6-oxopyridazin-1(6H)-yl)-N-ethylacetamide]
- IC50 ([1]; Table 4A): 10 to 100 µM
- IC50 ([2]; Table 5A): > 100 µM

Structure (SMILES): COc1ccc(-c2ccc(=O)n(CC(=O)NCc3ccccc3Cl)n2)cc1OC [IIIb-40, N-(2-chlorobenzyl)-2-(3-(3,4-dimethoxyphenyl)-6-oxopyridazin-1(6H)-yl)acetamide]
- IC50 ([1]; Table 4C): > 100 µM
- IC50 ([2]; Table 5C): > 100 µM

Structure (SMILES): CC(C)OCCCNC(=O)Cn1nc(-c2ccc(Cl)cc2)ccc1=O [IIIc-33, 2-(3-(4-chlorophenyl)-6-oxopyridazin-1(6H)-yl)-N-(3-isopropoxypropyl)acetamide]
- IC50 ([1]; Table 4C): 10 to 100 µM
- IC50 ([2]; Table 5C): > 100 µM

Structure (SMILES): COc1ccc(-c2ccc(=O)n(CC(=O)NCCC3=CCCCC3)n2)cc1 [IIIb-14, N-(2-(cyclohex-1-en-1-yl)ethyl)-2-(3-(4-methoxyphenyl)-6-oxopyridazin-1(6H)-yl)acetamide]
- IC50 ([1]; Table 4C): < 10 µM
- IC50 ([2]; Table 5C): > 100 µM

Structure (SMILES): CC[C@@H](C)NC(=O)Cn1nc(-c2ccc(OC(F)F)nc2)ccc1=O [Compound I-66, (R)-N-(sec-butyl)-2-(3-(6-(difluoromethoxy)pyridin-3-yl)-6-oxopyridazin-1(6H)-yl)acetamide]
- IC50 ([1]; Table 4A): < 10 µM
- IC50 ([2]; Table 5A): > 100 µM

Structure (SMILES): O=C(Cn1nc(-c2ccc(OCC(F)(F)F)cc2)ccc1=O)NCc1ccc(O)nc1 [II-20, N-((6-hydroxypyridin-3-yl)methyl)-2-(6-oxo-3-(4-(2,2,2-trifluoroethoxy)phenyl)pyridazin-1(6H)-yl)acetamide]
- IC50 ([1]; Table 4B): > 100 µM
- IC50 ([2]; Table 5B): > 100 µM

Structure (SMILES): COc1ccc(-c2ccc(=O)n(CC(=O)NCc3ccccc3OC)n2)cc1 [IIIb-21, N-(2-methoxybenzyl)-2-(3-(4-methoxyphenyl)-6-oxopyridazin-1(6H)-yl)acetamide]
- IC50 ([1]; Table 4C): 10 to 100 µM
- IC50 ([2]; Table 5C): > 100 µM

Structure (SMILES): CCNC(=O)Cn1nc(-c2ccc(N(C)C34CC(C3)C4)nc2)ccc1=O [Compound I-64, 2-(3-(6-(bicyclo[1.1.1]pentan-1-yl(methyl)amino)pyridin-3-yl)-6-oxopyridazin-1(6H)-yl)-N-ethylacetamide]
- IC50 ([1]; Table 4A): < 10 µM
- IC50 ([2]; Table 5A): 10 to 100 µM

Structure (SMILES): CCNC(=O)Cn1nc(-c2ccc(CC(F)(F)F)nc2)ccc1=O [Compound I-37, N-ethyl-2-(6-oxo-3-(6-(2,2,2-trifluoroethyl)pyridin-3-yl)pyridazin-1(6H)-yl)acetamide]
- IC50 ([1]; Table 4A): 10 to 100 µM
- IC50 ([2]; Table 5A): > 100 µM

Structure (SMILES): O=C(Cn1nc(-c2ccc3c(c2)OCCO3)ccc1=O)Nc1ccccc1F [IIIb-17, 2-(3-(2,3-dihydrobenzo[b][1,4]dioxin-6-yl)-6-oxopyridazin-1(6H)-yl)-N-(2-fluorophenyl)acetamide]
- IC50 ([1]; Table 4C): < 10 µM
- IC50 ([2]; Table 5C): > 100 µM

Structure (SMILES): O=C(Cn1nc(-c2ccccc2)ccc1=O)Nc1ccccc1F [IIIc-66, N-(2-fluorophenyl)-2-(6-oxo-3-phenylpyridazin-1(6H)-yl)acetamide]
- IC50 ([1]; Table 4C): > 100 µM
- IC50 ([2]; Table 5C): > 100 µM

Structure (SMILES): COc1ccc(-c2ccc(=O)n(CC(=O)NCc3ccccc3C(F)(F)F)n2)cc1 [IIIa-11, 2-(3-(4-methoxyphenyl)-6-oxopyridazin-1(6H)-yl)-N-(2-(trifluoromethyl)benzyl)acetamide]
- IC50 ([1]; Table 4C): < 10 µM
- IC50 ([2]; Table 5C): > 100 µM

Structure (SMILES): O=C(Cn1nc(-c2ccccc2)ccc1=O)Nc1cccc2[nH]ccc12 [IIIc-50, N-(1H-indol-4-yl)-2-(6-oxo-3-phenylpyridazin-1(6H)-yl)acetamide]
- IC50 ([1]; Table 4C): 10 to 100 µM
- IC50 ([2]; Table 5C): > 100 µM

Structure (SMILES): O=C(Cn1nc(-c2cnc(OCCOC(F)(F)F)nc2)ccc1=O)NC1CCC1 [Compound I-72, N-cyclobutyl-2-(6-oxo-3-(2-(2-(trifluoromethoxy)ethoxy)pyrimidin-5-yl)pyridazin-1(6H)-yl)acetamide]
- IC50 ([1]; Table 4A): < 10 µM
- IC50 ([2]; Table 5A): > 100 µM

Structure (SMILES): CCNC(=O)Cn1nc(-c2ccc(OC(F)(F)F)nc2)ccc1=O [Compound I-14, N-ethyl-2-(6-oxo-3-(6-(trifluoromethoxy)pyridin-3-yl)pyridazin-1(6H)-yl)acetamide]
- IC50 ([1]; Table 4A): 10 to 100 µM
- IC50 ([2]; Table 5A): > 100 µM

Structure (SMILES): COc1ccc(-c2ccc(=O)n(CC(=O)Nc3ncccc3C)n2)cc1 [IIIb-27, 2-(3-(4-methoxyphenyl)-6-oxopyridazin-1(6H)-yl)-N-(3-methylpyridin-2-yl)acetamide]
- IC50 ([1]; Table 4C): 10 to 100 µM
- IC50 ([2]; Table 5C): > 100 µM

Structure (SMILES): COc1ccc(-c2ccc(=O)n(CC(=O)NC3(c4ccccc4Cl)CC3)n2)cc1 [IIIa-20, N-(1-(2-chlorophenyl)cyclopropyl)-2-(3-(4-methoxyphenyl)-6-oxopyridazin-1(6H)-yl)acetamide]
- IC50 ([1]; Table 4C): 10 to 100 µM
- IC50 ([2]; Table 5C): > 100 µM

Structure (SMILES): CCNC(=O)Cn1nc(-c2ccc(OC(F)F)cc2)cc(C)c1=O [II-21, 2-(3-(4-(difluoromethoxy)phenyl)-5-methyl-6-oxopyridazin-1(6H)-yl)-N-ethylacetamide]
- IC50 ([1]; Table 4B): > 100 µM
- IC50 ([2]; Table 5B): > 100 µM

Structure (SMILES): COc1ccc(-c2ccc(=O)n(CC(=O)NCc3cnccn3)n2)cc1 [IIIa-28, 2-(3-(4-methoxyphenyl)-6-oxopyridazin-1(6H)-yl)-N-(pyrazin-2-ylmethyl)acetamide]
- IC50 ([1]; Table 4C): > 100 µM
- IC50 ([2]; Table 5C): > 100 µM

Structure (SMILES): O=C(Cn1nc(-c2ccc(F)cc2)ccc1=O)NCCc1c[nH]c2ccccc12 [IIIc-44, N-(2-(1H-indol-3-yl)ethyl)-2-(3-(4-fluorophenyl)-6-oxopyridazin-1(6H)-yl)acetamide]
- IC50 ([1]; Table 4C): 10 to 100 µM
- IC50 ([2]; Table 5C): > 100 µM

Structure (SMILES): O=C(Cn1nc(-c2ccc(OCC(F)(F)F)cc2)ccc1=O)NCc1ccncc1Cl [II-25, N-((3-chloropyridin-4-yl)methyl)-2-(6-oxo-3-(4-(2,2,2-trifluoroethoxy)phenyl)pyridazin-1(6H)-yl)acetamide]
- IC50 ([1]; Table 4B): > 100 µM
- IC50 ([2]; Table 5B): > 100 µM

Structure (SMILES): CCNC(=O)Cn1nc(-c2cnc(Oc3ccc(Cl)cc3)nc2)ccc1=O [Compound I-78, 2-(3-(2-(4-chlorophenoxy)pyrimidin-5-yl)-6-oxopyridazin-1(6H)-yl)-N-ethylacetamide]
- IC50 ([1]; Table 4A): 10 to 100 µM
- IC50 ([2]; Table 5A): > 100 µM

Structure (SMILES): COc1ccc(-c2ccc(=O)n(CC(=O)NCCC(C)C)n2)c(F)c1 [IIIb-57, 2-(3-(2-fluoro-4-methoxyphenyl)-6-oxopyridazin-1(6H)-yl)-N-isopentylacetamide]
- IC50 ([1]; Table 4C): > 100 µM
- IC50 ([2]; Table 5C): > 100 µM
